Values joined by “and” are separate entries in the source; they are usually repeats but may differ in a detail not shown here. Equal entries are not always repeated.
Assays:
[1] = test system: pMEK; assay: pMEK AlphaLISA (MEK1 pS218/222), A549 cells, EGF stimulated; type: cell-based; details: Homo sapiens, 2 h compound, EGF 30 ng/ml 15 min
Description: (§1) Determination of pMEK IC50s
(§2) A549 cells were cultured in F12K/10% FBS media (ATCC CAT #21127022) and were seeded at 10000 cells/well and HCT116 cells were cultured in McCoy's 5A/10% FBS media (Gibco Cat #30-2007) were seeded at 15000 cells/well in 384 microplates (Corning CAT #3765). Cells were incubated overnight in a TC incubator. Compounds were serially diluted and added to cells for 2 h in a TC incubator. At the end of the 2 h EGF (R&D Systems 236-EG-200) was added at a final EGF concentration of 30 ng/ml and incubated for 15 minutes at 37° C. in a TC incubator. AlphaLisa (Perkin Elmer) was performed according to manufacturer's instructions (Perkin Elmer CAT #ALPHA.SF ULTRA MEK1 PS218/222). The percent (%) inhibition at each concentration of compound is calculated based on and relative to the AlphaLISA signal in the HPE and ZPE control wells contained within each assay plate. The ZPE control wells contain cells and DMSO as 0% inhibition, and the HPE control wells only contain cells and control compound (Sellekchem Staurosporin CAT #S1421) as 100% inhibition.

[2] = test system: pMEK; assay: pMEK AlphaLISA (MEK1 pS218/222), HCT116 cells, EGF stimulated; type: cell-based; details: Homo sapiens, HCT-116, 2 h compound, EGF 30 ng/ml 15 min
Description: as §1, §2

[3] = test system: IPC298 cells; assay: IPC298 Cell Titer Glow assay (CTG); details: for IC50: read-out: CTG IC50 (nM) Cell Line: IPC298.2
[4] = test system: HCT116 cells; assay: HCT116 Cell Titer Glow assay (CTG); details: for IC50 / viability at 1000 µM: Homo sapiens, HCT-116, 72 h; for IC50: read-out: CTG IC50 (nM) Cell Line: HCT116.20; for viability at 1000 µM: read-out: CTG % cell viability 1000 uM HCT116.20, HCT116 cells, 72 hours, 1000 uM
[5] = test system: pERK Thr202/Tyr204; assay: pERK HTRF detection of pERK Thr202/Tyr204, HCT116 cells; type: cell-based; details: Homo sapiens, HCT-116, 2 h compound
Description: (§3) pERK: Detection of pERK Thr202/Tyr204
(§4) A549 cultured in F-12K/10% FBS were seeded at 10000 cells/well, and HCT116 cultured in McCoy's 5A/10% FBS were seeded at 15000 cells/well cells into Corning 384-well plates, respectively. Cells were incubated overnight in a TC incubator. Compounds were serially diluted and added to cells for 2 h in a TC incubator. Cells were then lysed according to manufacture protocol (Cisbio CAT #: 64AERPEG). Cell lysate was mixed with phospho-ERK (Thr202/Tyr204) antibody solution at 5:1 (v:v). Lysate and antibody mixture were incubated overnight at room temperature. HTRF signal was read at two different wavelengths (665 nm and 620 nm) on a compatible HTRF reader.

[6] = test system: pERK Thr202/Tyr204; assay: pERK HTRF detection of pERK Thr202/Tyr204, A549 cells; type: cell-based; details: Homo sapiens, 2 h compound
Description: as §3, §4

[7] = percent cells remaining after treatment

SMILES	IC50 [1] [nM]	IC50 [2] [nM]	IC50 [4] [nM]	IC50 ([5]; numeric value) [nM]	IC50 [6] [nM]	IC50 [5] [nM]	IC50 ([3]; Homo sapiens, IPC-298, 72 h) [nM]	viability at 100 µM ([3]; Homo sapiens, IPC-298, 72 h, read-out: CTG % cell viability 100 uM IPC298.2, IPC298 cells, 72 hours, 100 uM, percent cells remaining after treatment) [%]	viability at 1000 µM [4, 7] [%]	CTG % cell viability 100 uM IPC298.2 ([3]; IPC298 cells, 72 hours, 100 uM, percent cells remaining after treatment)	CTG % cell viability 1000 uM HCT116.20 ([4]; HCT116 cells, 72 hours, 1000 uM, percent cells remaining after treatment) [%]
CNS(=O)(=O)Nc1nccc(Cc2cncc(Nc3ccc(Cl)cc3F)c2C)c1F [Example 6, N-(4-chloro-2-fluorophenyl)-5-({3-fluoro-2-[(methylsulfamoyl)amino]pyridin-4-yl}methyl)-4-methylpyridin-3-amine]	< 10	< 10	10 to 100		< 10	< 10					
CNS(=O)(=O)Nc1nccc(Cc2cncc(Nc3ccc(C#N)cc3F)c2C)c1F [Example 11, 3-fluoro-4-{[5-({3-fluoro-2-[(methylsulfamoyl)amino]pyridin-4-yl}methyl)-4-methylpyridin-3-yl]amino}benzonitrile]	10 to 100	< 10			< 10	< 10	10 to 100		31.8		
CNS(=O)(=O)Nc1ccc(Cc2cncc(Nc3ccc(Br)cc3F)c2C)cc1 [Example 5, N-(4-bromo-2-fluorophenyl)-4-methyl-5-({4-[(methylsulfamoyl)amino]phenyl}methyl)pyridin-3-amine]	< 10	< 10	10 to 100		< 10	< 10	< 10				
Cc1c(Cc2ccnc(S(C)(=O)=O)c2F)cncc1Nc1ccc(Br)cc1F [Example 9, N-(4-bromo-2-fluorophenyl)-5-[(3-fluoro-2-methanesulfonylpyridin-4-yl)methyl]-4-methylpyridin-3-amine]	< 10	10 to 100			< 10	< 10					
CC(=O)Nc1nccc(Cc2cncc(Nc3ccc(Br)cc3F)c2C)c1F [Example 3, N-[4-({5-[(4-bromo-2-fluorophenyl)amino]-4-methylpyridin-3-yl}methyl)-3-fluoropyridin-2-yl]acetamide]	10 to 100	10 to 100			< 10	< 10					
CNS(=O)(=O)Nc1nccc(Cc2cncc(Nc3ccc(Br)cc3F)c2C)c1F [Example 1, N-(4-bromo-2-fluorophenyl)-5-({3-fluoro-2-[(methylsulfamoyl)amino]pyridin-4-yl}methyl)-4-methylpyridin-3-amine]	< 10	< 10	< 10		< 10	< 10	< 10				
CCc1ccc(Nc2cncc(Cc3ccnc(NS(=O)(=O)NC)c3F)c2C)c(F)c1 [Example 10, N-(4-ethyl-2-fluorophenyl)-5-({3-fluoro-2-[(methylsulfamoyl)amino]pyridin-4-yl}methyl)-4-methylpyridin-3-amine]	< 10	< 10	< 10		< 10	< 10	< 10				
COC(=O)Nc1nccc(Cc2cncc(Nc3ccc(Br)cc3F)c2C)c1F [Example 4, methyl N-[4-({5-[(4-bromo-2-fluorophenyl)amino]-4-methylpyridin-3-yl}methyl)-3-fluoropyridin-2-yl]carbamate]	10 to 100	10 to 100			10 to 100	10 to 100					

Second part, led by results:

IC50 [1] [nM]	IC50 [2] [nM]	IC50 [4] [nM]	IC50 ([5]; numeric value) [nM]	IC50 [6] [nM]	IC50 [5] [nM]	SMILES	IC50 ([3]; Homo sapiens, IPC-298, 72 h) [nM]	viability at 100 µM ([3]; Homo sapiens, IPC-298, 72 h, read-out: CTG % cell viability 100 uM IPC298.2, IPC298 cells, 72 hours, 100 uM, percent cells remaining after treatment) [%]	viability at 1000 µM [4, 7] [%]	CTG % cell viability 100 uM IPC298.2 ([3]; IPC298 cells, 72 hours, 100 uM, percent cells remaining after treatment)	CTG % cell viability 1000 uM HCT116.20 ([4]; HCT116 cells, 72 hours, 1000 uM, percent cells remaining after treatment) [%]
< 10	< 10	10 to 100	0.354			CNS(=O)(=O)Nc1nccc(Cc2cncc(Nc3ccc(OC(F)(F)F)cc3F)c2C)c1F [Example 39]	< 10				
< 10	< 10	10 to 100	0.362			CNS(=O)(=O)Nc1nccc(Cc2cncc(Nc3ccc(Cl)cc3F)c2OC)c1F [Example 37, N-(4-chloro-2-fluorophenyl)-5-({3-fluoro-2-[(methylsulfamoyl)amino]pyridin-4-yl}methyl)-4-methoxypyridin-3-amine]	< 10				
> 1000	> 1000	> 1000	> 1000			CNS(=O)(=O)Nc1nccc(Cc2cncc(Oc3ccc(Cl)cc3F)n2)c1F [Example 40, 4-[[6-(4-chloro-2-fluoro-phenoxy)pyrazin-2-yl]methyl]-3-fluoro-N-(methylsulfamoyl)pyridin-2-amine]	> 1000	95.2	101		
< 10	< 10	< 10	0.241			CNS(=O)(=O)Nc1nccc(Cc2cncc(Nc3ccc(Cl)cc3F)c2C(F)(F)F)c1F [Example 38, N-(4-chloro-2-fluorophenyl)-5-({3-fluoro-2-[(methylsulfamoyl)amino]pyridin-4-yl}methyl)-4-(trifluoromethyl)pyridin-3-amine]	< 10				
< 10	< 10	100 to 500	2.32			CNS(=O)(=O)Nc1nccc(Cc2cncc(Nc3nc4c(cc3F)OCCO4)c2C)c1F [Example 41, 7-fluoro-N-[5-[[3-fluoro-2-(methylsulfamoylamino)-4-pyridyl]methyl]-4-methyl-3-pyridyl]-2,3-dihydro-[1,4]dioxino[2,3-b]pyridin-6-amine]	10 to 100				
< 10	< 10	100 to 500				Cc1c(Cc2ccnc([S+](C)[O-])c2F)cncc1Nc1ccc(Br)cc1F (stereo not drawn) [Example 22]	10 to 100				
< 10	< 10	100 to 500	0.791			CNS(=O)(=O)Nc1nccc(Cc2cncc(Nc3cc4c(cc3F)OCCO4)c2C)c1F [Example 42, 3-fluoro-4-[[5-[(6-fluoro-2,3-dihydro-1,4-benzodioxin-7-yl)amino]-4-methyl-3-pyridyl]methyl]-N-(methylsulfamoyl)pyridin-2-amine]	10 to 100				
10 to 100	10 to 100	> 1000				CNS(=O)(=O)Nc1nccc(C(C)c2cncc(Nc3ccc(Cl)cc3F)c2C)c1F (stereo not drawn) [Example 16]	100 to 500		36.5		
500 to 1000	> 1000	> 1000				Cc1c(Cc2ccnc(S(C)(=O)=O)c2F)cncc1Nc1ccc(F)cc1F [Example 17, N-(2,4-difluorophenyl)-5-[(3-fluoro-2-methanesulfonylpyridin-4-yl)methyl]-4-methylpyridin-3-amine]	> 1000		68.2	72.73; % and 98.52%	83.74
< 10	< 10			< 10	< 10	CNC(=O)Nc1nccc(Cc2cncc(Nc3ccc(Br)cc3F)c2C)c1F [Example 12, 1-[4-({5-[(4-bromo-2-fluorophenyl)amino]-4-methylpyridin-3-yl}methyl)-3-fluoropyridin-2-yl]-3-methylurea]					
